How the values were obtained:
[1] = acute oral toxicity in mice; format: in vivo, ICR mice; settings: for toxicity: oral, mouse, single dose 5,000 mg/kg
Description: Toxicity of Orally Administered tannin, gallic acid or ellagic acid
36 seven-week-old, specific pathogen-free ICR […] female mice each weighing about 25 to 29 g and 18 male mice each weighing about 34 to 38 9, were kept under an environment of 22±1° C., 55±5% relative humidity and 12L/12D photoperiod. Fodder (Cheiljedang Co., mouse and rat fodder) and water were sterilized and fed to the mice.
Tannin, gallic acid or ellagic acid purchased from Aldrich-Sigma Chemical Co. (St. Louis, Mo., U.S.A) was dissolved in 0.5% Tween 80 to a concentration of 500 mg/ml, and the solution was orally administered to the mice in an amount of 0.2 ml per 20 g of mouse body weight. […] Further, on the 10th day, the mice were sacrificed and the internal organs were visually examined.

[2] = test system: liver cells around the central vein; assay: fatty liver: proportion of abnormal fat-containing cells in the liver of rabbits; format: in vivo, New Zealand White rabbits; settings: 6 weeks; for A: Proportion of abnormal fat-containing liver cells (grade): 1% cholesterol diet plus 0.1% compound (Lovastatin 1 mg/kg), mean of grades 1+ to 4+, Control 3.2 ± 0.3; for inhibition of the formation of fatty liver: 1% cholesterol diet
Description: (§1) 30 three-month-old male New Zealand White rabbits (Yeonam Horticulture and Animal Husbandry College, Korea), each weighing about 2.5 to 2.6 kg, were raised under a condition of temperature 20+2° C., relative humidity 55±5%, and photoperiod 12L/12D. The rabbits were divided into 5 groups and 5 groups of rabbits were fed with 5 different diets, i.e., RC4 diet (Oriental Yeast Co., Japan) containing 1% cholesterol (Control group, 1); 1% cholesterol plus 1 mg/kg Lovastatin® (Merck, U.S.A.) (Lovastatin® group, 2); 1% cholesterol plus 0.1% tannin (3); 1% cholesterol plus 0.1% gallic acid (4); and 1% cholesterol plus 0.1% ellagic acid (5), respectively. RC4 diet comprises 7.6% moisture, 22.8% crude protein, 2.8% crude fat, 8.8% crude ash, 14.4% crude cellulose and 43.6% soluble nitrogen-free substances. Tannin, gallic acid and ellagic acid were purchased from Sigma Chemical Co. (St. Louis, Mo.).
(§2) The rabbits were fed for 6 weeks while being allowed free access to the diets and water.
(Step 5) Prevention of Hepatic Diseases

[3] = chemical analysis of blood of rabbits fed a high-cholesterol diet; format: in vivo, New Zealand White rabbits; settings: for TG (triglyceride): Control 56 ± 38; for TC (total cholesterol): Control 1143 ± 260
Description: Effect of Tannin, Gallic acid or Ellagic acid in an Animal
(Step 1) Administration of tannin, gallic acid or ellagic acid to rabbits
as §1, §2
(Step 2) Chemical Analysis of Blood
After six weeks, the rabbits were anesthetized with an intramuscular injection of ketamine (50 mg/kg) in the femoral region and sacrificed. A blood sample was taken from the heart of each rabbit, allowed to stand for 2 hours and centrifuged at 3,000 rpm for 15 minutes and the supernatant serum was separated and stored in a freezer before use.
The chemical analysis of blood was carried out by employing a blood chemical analyzer (CIBA Corning 550 Express, USA) to determine the changes in GOT, GPT, γGTP, total cholesterol, HDL-cholesterol and triglyceride levels.

[4] = plasma cholesterol, HDL-cholesterol and neutral lipid levels in rats fed a high-cholesterol diet; format: in vivo, Sprague-Dawley rats; settings: six weeks; for HDL-C/Total-C ratio higher than in the control group / neutral lipid content lower than in the Control group / total plasma cholesterol level lower than in the Control group: 0.1% in diet; for HDL-C / Total-C / HDL-C (HDL-cholesterol) / TG (triglyceride) / Total-C (total cholesterol): 1% cholesterol plus 0.1% compound in diet; for HDL-C / Total-C: Control 28; for HDL-C (HDL-cholesterol): Control 38 ± 2; for TG (triglyceride): Control 98 ± 5; for Total-C (total cholesterol): Control 135 ± 6
Text: Effect of Tannin, Gallic acid or Ellagic acid on Plasma Cholesterol, HDL-Cholesterol and Neutral Lipid Levels
(Step 1) Administration of tannin or gallic acid to rats
30 three-week-old white Sprague-Dawley rats (Taihan laboratory animal center, Korea), each weighing about 90 to 110 g, were evenly divided into three dietary groups by a randomized block design. The rats of the three groups were fed with three different high-cholesterol diets, i.e., AIN-76 laboratory animal diet (ICN Biochemicals, Cleveland, Ohio, U.S.A.) containing 1% cholesterol (Control group), 1% cholesterol plus 0.1% tannin group (tannin group) and 1% cholesterol plus 0.1% gallic acid, respectively.
The rats were allowed to feed freely on the specified diet together with water for six weeks, the ingestion amount was recorded daily and the rats were weighed every 7 days, and then the record was analyzed.
(Step 2) Determination of total cholesterol, HDL-cholesterol and neutral lipid content in blood
The effects of administering tannin or gallic acid to rats on the plasma cholesterol and neutral lipid contents were determined as follows.
The rats of the three dietary groups obtained in Step 1 were sacrificed and blood samples were taken therefrom. The blood was allowed to stand for 2 hours and centrifuged at 3,000 rpm for 15 minutes and the supernatant was separated and stored in a deep freezer before use. The chemical analysis of blood was carried out by employing a blood chemical analyzer (CIBA Corning 550 Express, USA) to determine the changes in total cholesterol, HDL-cholesterol and triglyceride levels.

[5] = test system: main artery (arterial endothelium); assay: analysis for fatty streak in the main artery of rabbits; format: in vivo, New Zealand White rabbits; settings: for Fatty streak (proportion of stained region to total arterial area): 1% cholesterol diet plus 0.1% compound (Lovastatin 1 mg/kg), Control 35 ± 14; for Fatty streak (proportion of stained region to total arterial area) / plaque formation in the endothelium of the main artery: 6 weeks; for deposition of macrophages on the arterial endothelium: blood cholesterol level high
Description: as §1, §2
(Step 3) Analysis for fatty streak in the main artery
The chest of each of the rabbits sacrificed in Step 2 was incised. The downward portion of the main artery from the site 1 cm above the aortic valve was cut out in a length of about 5 cm and the fat surrounding the main artery was removed. The main artery was incised in the middle along the longitudinal axis and pinned to a dish. The moist artery was photographed and, then, the staining of fatty streaks was carried out in accordance with the method of Esper, E., et al. (J. Lab. Clin. Med., 121, 103-110 (1993)) as follows.
A part of the incised main artery was washed three times with anhydrous propylene glycol for 2 min. and stained for 30 min. with a saturated solution of Oil Red O (ORO, Sigma Co.) dissolved in propylene glycol. Thereafter, the artery was washed twice with 85% propylene glycol for 3 min. to remove remaining staining solution and, then washed with physiological saline. The artery was photographed and the photograph was traced. The area of stained region (fatty streak region) was determined with an image analyzer (LEICA, Q-600, Germany) and its proportion (%) to the total arterial area was calculated.
FIGS. 1A, 1B and 1C show the arteries of the rabbits administered with 1% cholesterol (Control group); 1% cholesterol plus 1 mg/kg Lovastatin® (Lovastatin® group); 1% cholesterol plus 0.1% ellagic acid, respectively.

[6] = rabbits, 1% cholesterol diet plus 0.1% compound (Lovastatin 1 mg/kg), 6 weeks

Compound	toxicity [1]	A: Proportion of abnormal fat-containing liver cells (grade) [2]	inhibition of the formation of fatty liver [2]	TG (triglyceride) [3, 6] [mg/dL]	TC (total cholesterol) [3, 6] [mg/dL]	lipid metabolism and liver function ([3]; rabbits, 6 weeks)	HDL-C/Total-C ratio higher than in the control group [4] [%]	neutral lipid content lower than in the Control group [4] [%]	total plasma cholesterol level lower than in the Control group [4] [%]	HDL-C / Total-C [4] [%]	HDL-C (HDL-cholesterol) [4] [mg/dL]	TG (triglyceride) [4] [mg/dL]	Total-C (total cholesterol) [4] [mg/dL]	Fatty streak (proportion of stained region to total arterial area) [5] [%]	plaque formation in the endothelium of the main artery [5]	deposition of macrophages on the arterial endothelium [5]	further results
O=C(O)c1cc(O)c(O)c(O)c1 [Gallic acid, gallic acid]	no toxicity	2.7 ± 0.4	can significantly inhibit the formation of fatty liver	27 ± 11	1150 ± 100	can improve	21	22	31	34	32 ± 3	77 ± 4	93 ± 5	10 ± 2	inhibit	strongly inhibit	weight loss ([1]; oral 5,000 mg/kg, 10 day test period): no weight loss; pathological abnormality at autopsy ([1]; oral 5,000 mg/kg, day 10): had not developed any pathological abnormality; survival ([1]; oral 5,000 mg/kg, day 10): All the mice were alive at day 10; effect on the liver function (adverse) ([3]; general statement): do not adversely affect on the liver function; γGTP ([3]; rabbits, 1% cholesterol diet plus 0.1% compound (Lovastatin 1 mg/kg), 6 weeks, Control 4.2 ± 0.9): 7.0 ± 2 IU/l; GPT ([3]; rabbits, 1% cholesterol diet plus 0.1% compound (Lovastatin 1 mg/kg), 6 weeks, Control 65 ± 9): 20 ± 10 IU/l; GOT ([3]; rabbits, 1% cholesterol diet plus 0.1% compound (Lovastatin 1 mg/kg), 6 weeks, Control 77 ± 8): 60 ± 9 IU/l
tannin	no toxicity	2.7 ± 0.4	significantly inhibit the formation of fatty liver	25 ± 10	1120 ± 211	can improve	54	21	35	43	37 ± 2	76 ± 3	88 ± 4	13 ± 2	inhibit	strongly inhibit	effect on the liver function (adverse) ([3]; rabbit, in vivo): do not adversely affect on the liver function

Source: patent US6133311A, “Method for preventing or treating elevated blood lipid level-related diseases by administering natural phenolic compounds” (priority 1998, dated 2000)
